Read-outs that look alike come from different tables or passages of the source. Each block holds one compound with its values, some of them ahead of it. Where no end group is shown, it is not given here.
Tests used:
Assay in all cases: MHC II competition binding assay
[1] = target: T1, DRB1*1501 (Homo sapiens, UniProt P01903+P01911)
T1 construct: purchased Benaroya Research Institute (Seattle, Wash.)
Procedure: MHC Binding Assays. […] Briefly, 100 nM biotinylated control peptides composed of known peptide antigens for each MHC II allele were incubated in polypropylene 384-well plates with 50 nM purified recombinant MHC II protein and serial dilutions of LST or variant peptide fragments (100 μM to 10 nM). Peptide-MHC II complexes were captured from equilibrated solutions using the conformation specific anti-HLA-DR antibody L243 coated on high binding ELISA plates. Bound control peptide was quantified using the DELFIA streptavidin-Europium conjugate and time resolved fluorescence (SpectraMax Gemini Fluorescence Microplate Reader).

[2] = target: DRB1*0701 (Homo sapiens, UniProt P01903+P01911, A100R/A102G/A103Q/D57E/D86V/E43K/F76Y/K127E/L162R/M171V/P40G/Q125H/Q99D/R33Q/R42Y/R54Q/S133A/S66F/T210M/V115G/Y107V/Y59L/Y89S)
Procedure: (§1) MHC Binding Assays. MHC II competition binding assays were performed using a 384-well high throughput assay as previously described (Salvat, et al. (2014) supra). Binding assays were performed for the eight alleles: DRB1*0101, 0301, 0401, 0701, 0801, 1101, 1301, and 1501. Briefly, 100 nM biotinylated control peptides composed of known peptide antigens for each MHC II allele were incubated in polypropylene 384-well plates with 50 nM purified recombinant MHC II protein and serial dilutions of LST or variant peptide fragments (100 μM to 10 nM). Peptide-MHC II complexes were captured from equilibrated solutions using the conformation specific anti-HLA-DR antibody L243 coated on high binding ELISA plates. Bound control peptide was quantified using the DELFIA streptavidin-Europium conjugate and time resolved fluorescence (SpectraMax Gemini Fluorescence Microplate Reader).

[3] = target: DRB1*1301 (Homo sapiens, UniProt P01903+P01911, A100E/A169T/K41T/L162R/M171V/P40S/Q125H/Q178H/Q39Y/Q99D/R42S/S66N/T262R/W38E/Y61H)
Procedure: as §1

[4] = target: T2, DRB1*0101 (Homo sapiens, UniProt P01903+P01911, A100R/D57E/F55L/F60I/F76Y/I96L/L162R/M171V/P40L/Q125E/R42F/V115G/Y59C)
T2 construct: purchased Benaroya Research Institute (Seattle, Wash.)
Procedure: as §1

[5] = target: T3, DRB1*0301 (Homo sapiens, UniProt P01903+P01911, A100K/A102G/A103R/A169T/F55Y/I96L/K41T/L162R/M171V/P40S/Q125H/Q178H/Q39Y/R42S/S66N/T106N/T262R/W38E/Y61H)
T3 construct: purchased Benaroya Research Institute (Seattle, Wash.)
Procedure: as §1

[6] = target: DRB1*0801 (Homo sapiens, UniProt P01903+P01911, A100R/A103L/A169T/D86S/F76Y/H45Y/I96F/K41T/L162R/M171V/P40S/Q125H/Q178H/Q39Y/Q99D/R218S/R42G/S66Y/V115G/W38E)
Procedure: as §1

[7] = target: T4, DRB1*0401 (Homo sapiens, UniProt P01903+P01911, A100K/A169T/F76Y/I96L/K127E/L162R/M171V/N62H/P40V/Q125Y/R42H/S133A/S149N/S66Y/V115G/V209L/W38E)
T4 construct: purchased Benaroya Research Institute (Seattle, Wash.)
Procedure: as §1

[8] = target: DRB1*1101 (Homo sapiens, UniProt P01903+P01911, A100R/A169T/A87E/I96F/K41T/L162R/M171V/P40S/Q125H/Q178H/Q39Y/Q99D/R42S/S66Y/T262R/V115G/W38E)
Procedure: as §1

[9] = synthetic peptide competing with biotinylated control peptide, read-out: IC50 0801
[10] = synthetic peptide competing with biotinylated control peptide, read-out: IC50 0401

Compound: Asn12Gly: full-length lysostaphin single point mutant
binder class DRB1*0101 [4]: strong (strong binder if an IC50 value of less than 0.1 μM was observed)

Compound: Asn13His: full-length lysostaphin single point mutant
binder class DRB1*1301 [3]: weak (weak if an IC50 value was in the 1-10 μM range)

Compound: DHVKAGQIIGWSGSTGY [Peptide Y93H]
IC50 [1]: < 0.01 µM | IC50 [5]: > 250 µM | IC50 [3]: > 250 µM | IC50 [6]: > 250 µM | IC50 [7]: > 250 µM | IC50 [8]: > 250 µM

Compound: DYVEAGQIIGWSGSTGY [Peptide K95E]
IC50 [1]: < 0.01 µM | IC50 [7]: < 0.01 µM | IC50 [4]: < 0.01 µM

Compound: DYVKAGQQIGWSGSTGY [Peptide I99Q]
IC50 [5]: > 250 µM | IC50 [3]: > 250 µM | IC50 [6]: > 250 µM

Compound: GVDFFMNEGTPVHAISSGKIV [Design 41_46]
IC50 [1]: < 0.01 µM | IC50 [5]: > 250 µM | IC50 [3]: > 250 µM | IC50 [6]: > 250 µM | IC50 [7]: < 0.01 µM | IC50 [4]: < 0.01 µM | IC50 [8]: < 0.01 µM

Compound: HLHFQRMVGDFGNPTAQ [Peptide 212224]
IC50 [1]: 24.2 µM | IC50 [5]: 116 µM | IC50 [2]: > 250 µM | IC50 [3]: > 250 µM | IC50 [6]: > 250 µM | IC50 [7]: 5.55 µM | IC50 [4]: 0.18 µM | IC50 [8]: 13.4 µM

Now from value to compound, other results behind:

binder class DRB1*1301 [3]: weakly
Compound: CSCC[C@H](NC(=O)[C@H](Cc1ccc(O)cc1)NC(=O)[C@H](Cc1c[nH]c2ccccc12)NC(=O)[C@H](CCC(N)=O)NC(=O)[C@H](CCCNC(=N)N)NC(=O)[C@H](Cc1c[nH]cn1)NC(=O)[C@@H](NC(=O)CN)C(C)C)C(=O)N[C@@H](Cc1c[nH]cn1)C(=O)N[C@@H](CC(C)C)C(=O)N[C@@H](CO)C(=O)N[C@@H](CCCCN)C(=O)N[C@@H](Cc1ccc(O)cc1)C(=O)N[C@@H](CC(N)=O)C(=O)N[C@H](C(=O)N[C@@H](CCCCN)C(=O)N[C@H](C(=O)NCC(=O)N[C@@H](CC(=O)O)C(=O)O)C(C)C)C(C)C [Design C3WT]
binder class DRB1*1501 [1]: weak (weak if an IC50 value was in the 1-10 μM range) | binder class DRB1*0701 [2]: strong (strong binder if an IC50 value of less than 0.1 μM was observed) | binder class DRB1*0101 [4]: strong (strong binder if an IC50 value of less than 0.1 μM was observed)

IC50 ([1]; DRB1*1501, read-out: IC50): > 250 µM | IC50 ([5]; DRB1*0301, read-out: IC50): > 250 µM | IC50 ([3]; DRB1*1301, read-out: IC50): > 250 µM | IC50 ([6]; DRB1*0801, read-out: IC50): > 250 µM | IC50 ([7]; DRB1*0401, read-out: IC50): > 250 µM | IC50 ([4]; DRB1*0101, read-out: IC50): > 250 µM | IC50 ([8]; DRB1*1101, read-out: IC50): > 250 µM
Compound: DHVEAGQQIGWSGSTGY [Peptide 939599]

IC50 ([1]; DRB1*1501, read-out: IC50): < 0.01 µM | IC50 ([5]; DRB1*0301, read-out: IC50): > 250 µM | IC50 ([3]; DRB1*1301, read-out: IC50): > 250 µM | IC50 ([6]; DRB1*0801, read-out: IC50): > 250 µM | IC50 ([7]; DRB1*0401, read-out: IC50): < 0.01 µM | IC50 ([4]; DRB1*0101, read-out: IC50): < 0.01 µM | IC50 ([8]; DRB1*1101, read-out: IC50): > 250 µM
Compound: DHVKAGQQIGWSGSTGY [Peptide 93_99]

IC50 ([1]; DRB1*1501, read-out: IC50): < 0.01 µM | IC50 ([5]; DRB1*0301, read-out: IC50): > 250 µM | IC50 ([2]; DRB1*0701, read-out: IC50): 104 µM | IC50 ([3]; DRB1*1301, read-out: IC50): > 250 µM | IC50 ([6]; DRB1*0801, read-out: IC50): > 250 µM | IC50 ([4]; DRB1*0101, read-out: IC50): < 0.01 µM
Compound: DYVEAGQQIGWSGSTGY [Peptide 95-99]

IC50 ([5]; synthetic peptide competing with biotinylated control peptide, read-out: IC50 0301): > 250 µM | IC50 [6, 9]: > 250 µM
Compound: GVDFFMNEGTPVKAISSGKIV [Design 141E]

IC50 ([3]; synthetic peptide competing with biotinylated control peptide, read-out: IC50 1301): 104 µM | IC50 [6, 9]: > 250 µM | IC50 [7, 10]: 13.7 µM
Compound: GVDFFMNIGTPVKAISSGKIV [Design C2WT]

IC50 [7, 10]: > 250 µM
Compound: GVHRQWYMHMSKYNVKVGD [Design L83M]

Reference: patent publication US11091749B2, “Deimmunized lysostaphin and methods of use” (TRUSTEES OF DARTMOUTH COLLEGE, priority 2014, dated 2021)
